Source: patent US11912794B2, “Modulation of structured polypeptide specificity” (BicycleRD Limited, priority 2011, dated 2024)
Like-named read-outs stand apart in the source and are kept apart here. Numbered stars: 1 amine (or outer) side, 2 acyl side, 3 side chain; on linkers, the order of the positions; unused ones are H or OH. Bridge positions count the residues as written; N and C are the ends. Square brackets hold non-standard residues; d marks the D form. Peptide text beside a SMILES is read from it. Phe(4-guanidino) = N=C(N)Nc1ccc(C[C@H](N)C(=O)O)cc1; TBMB = c1c(C[*:1])cc(C[*:3])cc1C[*:2]; NMeR = CN[C@@H](CCCNC(=N)N)C(=O)O; hArg = N=C(N)NCCCC[C@H](N)C(=O)O; βAla = NCCC(=O)O

How the values were obtained:
human plasma Kallikrein = target: T1, human plasma Kallikrein (Homo sapiens, UniProt P03952); experiment: Functional enzyme inhibition assay, fluorogenic substrate Z-PheArg-AMC; format: biochemical
T1 construct: purchased Stratech, UK
T1 sequence (P03952 20-638): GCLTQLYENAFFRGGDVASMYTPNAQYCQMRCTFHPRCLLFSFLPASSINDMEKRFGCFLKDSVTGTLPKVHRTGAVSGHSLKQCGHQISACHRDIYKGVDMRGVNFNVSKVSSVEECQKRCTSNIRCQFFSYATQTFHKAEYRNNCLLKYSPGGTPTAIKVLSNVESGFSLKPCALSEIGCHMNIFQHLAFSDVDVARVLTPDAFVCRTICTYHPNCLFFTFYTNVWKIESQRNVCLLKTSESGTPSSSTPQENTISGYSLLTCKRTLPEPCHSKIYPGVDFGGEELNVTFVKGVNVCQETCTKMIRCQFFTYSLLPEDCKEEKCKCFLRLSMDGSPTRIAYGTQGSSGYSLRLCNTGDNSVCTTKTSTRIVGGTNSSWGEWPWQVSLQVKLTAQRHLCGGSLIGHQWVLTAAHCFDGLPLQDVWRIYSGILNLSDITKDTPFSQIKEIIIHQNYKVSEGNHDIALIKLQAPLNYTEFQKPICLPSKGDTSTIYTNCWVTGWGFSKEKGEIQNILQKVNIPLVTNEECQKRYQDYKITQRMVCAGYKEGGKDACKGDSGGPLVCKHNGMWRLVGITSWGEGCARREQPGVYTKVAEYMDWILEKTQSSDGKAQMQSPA
Method: Peptides were dissolved as the TFA-salts in their powder form, and stock solutions were usually prepared in water. All solutions were centrifuged and filtered ([…] syringe filters) prior absorption measurement at 280 nm. […] For peptides containing non-natural amino acids with suspected chromophoric properties (i.e. NorHar, 4PhenylPro, 3PaI, 4PaI, Tic, 4GuanPhe, 4,4-BPAI, 3,3-DPA, 1NAI, 2NAI, 4BenzylPro, Ind) concentrations were determined by weighing the powder and dissolving the peptide in a defined quantity of water.

[1] = Plasma stability profiling method 1 (35% plasma, MALDI-TOF, qualitative); format: in vitro ADME, rat; details: 35% rat plasma, 37 deg C, method 1, comparative estimate
Method: Three methods were employed to assess the stability of bicycles (peptides conjugated to molecular scaffolds) in plasma.
A rapid plasma stability profiling assay was developed that employed mass spectrometric detection (MALDI-TOF, Voyager DE, Applied Biosystems) of the parent mass, until the time when the parent peptide mass was no longer observable. Specifically, 200 uM of peptide was incubated in the presence of 35% rat or human plasma (Sera labs, using citrate as anticoagulant) at 37 deg C., which was supplemented with 1×PBS (derived from a 10×PBS Stock, Sigma). At various time points (i.e. t=0, 3, 24 hrs, henceafter daily up to 10 days), 2 uL of sample was added to 18 uL of 30 mM ammonium bicarbonate in a 1:1 mixture of acetonitrile:H2O. Samples were frozen at −80 deg C. until the time of analysis. For mass spectrometric analysis that determines the approximate detection window of the peptide, the acetonitrile:H2O-diluted sample of a given time point was spotted directly (0.7 uL) onto the MALDI plate. Matrix (alpha-cyanocinnamic acid, Sigma, prepared as a saturated solution in 1:1 acetonitrile:water containing 0.1% trifluoroacetic acid) was layered over the sample (1 uL). At a similar laser intensity setting on the MALDI TOF, the time could then be determined until parent peptide was no longer detectable. It should be noted that this is a qualitative assay serves to detect relative changes in plasma stability.

[2] = Plasma stability method 3 (95% plasma, quantitative LC/MS, Biofocus); format: in vitro ADME, rat
Method: To obtain plasma stability quantitatively, peptide stock solutions (1 mM in DMSO) were shipped to Biofocus, UK, who performed the analysis. Peptides were diluted to 100 uM with water, and diluted 1:20 in plasma (5 uM final concentration, with the plasma at 95%), sampled as appropriate, precipitated as above, and quantified using a Waters Xevo TQ-MS.

[3] = target: Monkey plasma Kallikrein (mPK) (Macaca mulatta, UniProt A0A1D5Q7U7); experiment: Target specificity, Ki for orthologous protease; format: biochemical
Sequence of Monkey plasma Kallikrein (mPK) (A0A1D5Q7U7 391-638): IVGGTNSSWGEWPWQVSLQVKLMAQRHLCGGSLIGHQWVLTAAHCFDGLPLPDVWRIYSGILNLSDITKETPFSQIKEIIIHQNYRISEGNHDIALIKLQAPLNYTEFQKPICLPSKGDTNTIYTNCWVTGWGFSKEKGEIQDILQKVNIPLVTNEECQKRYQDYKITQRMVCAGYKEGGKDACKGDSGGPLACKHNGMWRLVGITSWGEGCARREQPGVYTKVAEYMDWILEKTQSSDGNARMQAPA

rat plasma Kallikrein [4] = target: T2, rat plasma Kallikrein (Rattus norvegicus, UniProt P14272); details: highest concentration tested (10 μM); Heinis et al. 2009; cited from earlier work
T2 construct: polyhistidine tag with proTEV cleavage site (pro-peptide) (N, cleaved yes); made in house; host or cells: HEK-293 (suspension-adapted)
T2 sequence (P14272 391-638 limits assumed): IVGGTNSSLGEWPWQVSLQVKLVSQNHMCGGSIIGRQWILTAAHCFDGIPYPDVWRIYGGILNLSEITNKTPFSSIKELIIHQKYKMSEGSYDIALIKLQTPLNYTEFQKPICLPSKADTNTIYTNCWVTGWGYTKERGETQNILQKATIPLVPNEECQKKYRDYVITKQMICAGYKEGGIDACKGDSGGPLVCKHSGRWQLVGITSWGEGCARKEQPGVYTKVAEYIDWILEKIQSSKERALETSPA

Human factor XIa (hfXIa) = Human factor XIa (hfXIa) (Homo sapiens, UniProt P03951); details: highest concentration tested (10 μM); Heinis et al. 2009; cited from earlier work
Sequence of Human factor XIa (hfXIa) (P03951 388-625 limits assumed): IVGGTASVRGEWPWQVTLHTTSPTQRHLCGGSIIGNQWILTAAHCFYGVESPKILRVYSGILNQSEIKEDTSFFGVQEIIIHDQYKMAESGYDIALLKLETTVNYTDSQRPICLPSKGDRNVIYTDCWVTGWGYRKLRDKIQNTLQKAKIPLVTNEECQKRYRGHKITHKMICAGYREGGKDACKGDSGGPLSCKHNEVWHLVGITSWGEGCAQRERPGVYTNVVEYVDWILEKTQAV
Sequence of Human factor XIa (hfXIa) (P03951 19-387 partner limits assumed): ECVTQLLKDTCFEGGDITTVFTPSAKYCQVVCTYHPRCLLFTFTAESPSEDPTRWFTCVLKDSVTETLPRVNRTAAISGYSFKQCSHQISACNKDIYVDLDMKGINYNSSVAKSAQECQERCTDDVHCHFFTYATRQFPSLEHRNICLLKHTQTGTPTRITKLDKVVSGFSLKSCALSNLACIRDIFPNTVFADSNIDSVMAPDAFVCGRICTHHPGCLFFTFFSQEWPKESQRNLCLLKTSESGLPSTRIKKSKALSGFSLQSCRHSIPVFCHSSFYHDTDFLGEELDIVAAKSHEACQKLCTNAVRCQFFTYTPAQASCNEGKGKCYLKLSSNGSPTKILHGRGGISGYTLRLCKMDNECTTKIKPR

Human thrombin = Human thrombin (Homo sapiens, UniProt P00734); details: highest concentration tested (10 μM); Heinis et al. 2009; cited from earlier work
rat plasma Kallikrein [5] = target: T2, rat plasma Kallikrein; experiment: Functional enzyme inhibition assay, fluorogenic substrate Z-PheArg-AMC; format: biochemical
[6] = Ki (nM) (human kallikrein), Ac-06-34-18(TMB)-NH2 series

Compound | Ki (human plasma Kallikrein; [6]) [nM] | Observable in rat plasma, for days [1] [days] | t1/2 (hrs) in rat plasma ([2]; rat, plasma, 5 uM) [h] | further results
CC(=O)N[C@H]1CSCc2cc3cc(c2)CSC[C@H](NC(=O)[C@H](CCCNC(=N)N)NC(=O)[C@H](Cc2ccc(O)cc2)NC(=O)[C@@H]2CCCN2C(=O)[C@H](Cc2ccccc2)NC(=O)[C@H](CO)NC1=O)C(=O)N[C@@H](CC(C)C)C(=O)N[C@@H](Cc1c[nH]cn1)C(=O)N[C@@H](CCC(N)=O)C(=O)N[C@@H](CC(=O)O)C(=O)N[C@@H](CC(C)C)C(=O)N[C@H](C(N)=O)CSC3 [Ac-(06-34-18) FPYR] (Ac-CSFPYRCLHQDLC-NH2; linker 1-7-13 via TBMB) | 0.46 | 2 | 0.9 | –
CC(=O)N[C@H]1CSCc2cc3cc(c2)CSC[C@H](NC(=O)[C@H](Cc2ccc(NC(=N)N)cc2)NC(=O)[C@H](Cc2ccc(O)cc2)NC(=O)[C@@H]2CCCN2C(=O)[C@H](Cc2ccccc2)NC(=O)[C@H](CO)NC1=O)C(=O)N[C@@H](CC(C)C)C(=O)N[C@@H](Cc1c[nH]cn1)C(=O)N[C@@H](CCC(N)=O)C(=O)N[C@@H](CC(=O)O)C(=O)N[C@@H](CC(C)C)C(=O)N[C@H](C(N)=O)CSC3 [Ac-(06-34-18) Phe2 Tyr4 4GuanPhe5] (Ac-CSFPY[Phe(4-guanidino)]CLHQDLC-NH2; linker 1-7-13 via TBMB) | 0.4 | >10 | 5.0 | –
CC(=O)N[C@H]1CSCc2cc3cc(c2)CSC[C@H](NC(=O)[C@H](CCCCNC(=N)N)NC(=O)[C@H](Cc2ccc(O)cc2)NC(=O)[C@@H]2CCCN2C(=O)[C@H](Cc2ccccc2)NC(=O)[C@H](CO)NC1=O)C(=O)N[C@@H](CC(C)C)C(=O)N[C@@H](Cc1c[nH]cn1)C(=O)N[C@@H](CCC(N)=O)C(=O)N[C@@H](CC(=O)O)C(=O)N[C@@H](CC(C)C)C(=O)N[C@H](C(N)=O)CSC3 [Ac-(06-34-18) Phe2 Tyr4 HomoArg5] (Ac-CSFPY[hArg]CLHQDLC-NH2; linker 1-7-13 via TBMB) | – | >10 | 12.2 | rat plasma stability enhanced by a factor ([2]; vs parent Phe2Tyr4 peptide): 13
CC(=O)N[C@H]1CSCc2cc3cc(c2)CSC[C@H](NC(=O)[C@H](CCCNC(=N)N)N(C)C(=O)[C@H](Cc2ccc(O)cc2)NC(=O)[C@@H]2CCCN2C(=O)[C@H](Cc2ccccc2)NC(=O)[C@H](CO)NC1=O)C(=O)N[C@@H](CC(C)C)C(=O)N[C@@H](Cc1c[nH]cn1)C(=O)N[C@@H](CCC(N)=O)C(=O)N[C@@H](CC(=O)O)C(=O)N[C@@H](CC(C)C)C(=O)N[C@H](C(N)=O)CSC3 [Ac-(06-34-18) Phe2 Tyr4 NMeArg5] (Ac-CSFPY[NMeR]CLHQDLC-NH2; linker 1-7-13 via TBMB) | 3.56 | >10 | >20 | –
CC(=O)N[C@H]1CSCc2cc3cc(c2)CSC[C@H](NC(=O)[C@H](CCCNC(=N)N)NC(=O)[C@H](Cc2ccc(O)cc2)NC(=O)[C@@H]2CCCN2C(=O)[C@H](Cc2c[nH]c4ccccc24)NC(=O)[C@H](CO)NC1=O)C(=O)N[C@@H](CC(C)C)C(=O)N[C@@H](Cc1c[nH]cn1)C(=O)N[C@@H](CCC(N)=O)C(=O)N[C@@H](CC(=O)O)C(=O)N[C@@H](CC(C)C)C(=O)N[C@H](C(N)=O)CSC3 [Ac-(06-34-18) WPYR] (Ac-CSWPYRCLHQDLC-NH2; linker 1-7-13 via TBMB) | 0.41 | 2 | – | –
CC(=O)N[C@H]1CSCc2cc3cc(c2)CSC[C@H](NC(=O)[C@H](CCCNC(=N)N)NC(=O)[C@H](C)NC(=O)[C@@H]2CCCN2C(=O)[C@H](Cc2c[nH]c4ccccc24)NC(=O)[C@H](CO)NC1=O)C(=O)N[C@@H](CC(C)C)C(=O)N[C@@H](Cc1c[nH]cn1)C(=O)N[C@@H](CCC(N)=O)C(=O)N[C@@H](CC(=O)O)C(=O)N[C@@H](CC(C)C)C(=O)N[C@H](C(N)=O)CSC3 [Ac-(06-34-18) wildtype] | – | – | – | Observable in rat plasma, for days ([1]; listed as Ac-06-34-18(TMB)-NH2): about 2 days; t1/2 (hrs) in rat plasma ([2]; method 3, quantitative, listed as Ac-06-34-18(TMB)-NH2): about 2 hrs
CC(=O)N[C@H]1CSCc2cc3cc(c2)CSC[C@H](NC(=O)[C@H](CCCNC(=N)N)NC(=O)CCNC(=O)[C@@H]2CCCN2C(=O)[C@H](Cc2c[nH]c4ccccc24)NC(=O)[C@H](CO)NC1=O)C(=O)N[C@@H](CC(C)C)C(=O)N[C@@H](Cc1c[nH]cn1)C(=O)N[C@@H](CCC(N)=O)C(=O)N[C@@H](CC(=O)O)C(=O)N[C@@H](CC(C)C)C(=O)N[C@H](C(N)=O)CSC3 [Ac-(06-34-18) β-Ala4] (Ac-CSWP[βAla]RCLHQDLC-NH2; linker 1-7-13 via TBMB) | – | 10 | – | Ki (human plasma Kallikrein; text b279, read-out: affinity to Kallikrein): ~20000 nM
CC(C)C[C@@H]1NC(=O)[C@H](C)NC(=O)[C@H](CCC(=O)O)NC(=O)[C@H](CC(=O)O)NC(=O)[C@H](C)NC(=O)[C@@H]2CCCN2C(=O)[C@@H]2CSCc3cc(cc(c3)CSC[C@@H](C(=O)NCC(N)=O)NC1=O)CSC[C@H](NC(=O)[C@H](C)N)C(=O)N[C@@H](CO)C(=O)N[C@@H](CC(=O)O)C(=O)N[C@@H](CCCNC(=N)N)C(=O)N[C@@H](Cc1ccccc1)C(=O)N[C@@H](CCCNC(=N)N)C(=O)N[C@@H](CC(N)=O)C(=O)N2 [PK15] (H-ACSDRFRNCPADEALCG-NH2; linker 2-9-16 via TBMB) | – | – | – | Ki (human plasma Kallikrein; Ki Human plasma kalikrein (hPK), Table 1, means of at least two measurements): 3 nM; Ki [3]: 4 nM; inhibition of rat PK (rat plasma Kallikrein [4]): did not inhibit; inhibition of human factor XIa (hfXIa) (Human factor XIa (hfXIa)): did not inhibit; inhibition of thrombin (Human thrombin): did not inhibit
CC(C)[C@@H]1NC(=O)[C@H](CCCNC(=N)N)NC(=O)[C@@H]2CSCc3cc(cc(c3)CSC[C@@H](C(=O)N[C@@H](C)C(N)=O)NC(=O)[C@H](CC(N)=O)NC1=O)CSC[C@H](NC(=O)[C@H](C)N)C(=O)N[C@@H](Cc1ccccc1)C(=O)N[C@@H](CCCCN)C(=O)N[C@@H](C)C(=O)N2 [Peptide 3B3] | – | – | – | Ki [3]: 11 nM
CSCC[C@@H]1NC(=O)[C@@H]2CSCc3cc(cc(c3)CSC[C@@H](C(=O)N[C@@H](C)C(N)=O)NC(=O)[C@H](CC(C)C)NC(=O)[C@H](CC(=O)O)NC(=O)[C@H](CCC(N)=O)NC(=O)[C@H](Cc3c[nH]cn3)NC1=O)CSC[C@H](NC(=O)[C@H](C)N)C(=O)N[C@@H](CCCNC(=N)N)C(=O)N[C@@H](Cc1c[nH]c3ccccc13)C(=O)N1CCC[C@H]1C(=O)N[C@@H](C)C(=O)N[C@@H](CCCNC(=N)N)C(=O)N2 [Peptide 06-34-04] (H-ACRWPARCMHQDLCA-NH2; linker 2-8-14 via TBMB; N-terminus and C-terminus assumed) | – | – | – | IC50 (rat plasma Kallikrein [5]): 0.56 nM
CC(C)C[C@@H]1NC(=O)[C@H](CC(=O)O)NC(=O)[C@H](CCC(N)=O)NC(=O)[C@H](Cc2c[nH]cn2)NC(=O)[C@H](CC(C)C)NC(=O)[C@@H]2CSCc3cc(cc(c3)CSC[C@@H](C(=O)N[C@@H](C)C(N)=O)NC1=O)CSC[C@H](NC(=O)[C@H](C)N)C(=O)N[C@@H](CO)C(=O)N[C@@H](Cc1c[nH]c3ccccc13)C(=O)N1CCC[C@H]1C(=O)N[C@@H](C)C(=O)N[C@@H](CCCNC(=N)N)C(=O)N2 [Peptide 06-34-18] (H-ACSWPARCLHQDLCA-NH2; linker 2-8-14 via TBMB) | – | – | – | IC50 (human plasma Kallikrein): 0.07 nM; IC50 (rat plasma Kallikrein [5]): 0.56 nM
C[C@H](N)C(=O)N[C@H]1CSCc2cc3cc(c2)CSC[C@H](NC(=O)[C@H](CCCNC(=N)N)NC(=O)[C@H](C)NC(=O)[C@@H]2CCCN2C(=O)[C@H](Cc2c[nH]c4ccccc24)NC(=O)[C@H](CCCNC(=N)N)NC1=O)C(=O)N[C@@H]([C@@H](C)O)C(=O)N[C@@H](Cc1c[nH]cn1)C(=O)N[C@@H](CCC(N)=O)C(=O)N[C@@H](CC(N)=O)C(=O)N[C@@H](Cc1ccc(O)cc1)C(=O)N[C@H](C(=O)N[C@@H](C)C(N)=O)CSC3 [Peptide 06-54] (H-ACRWPARCTHQNYCA-NH2; linker 2-8-14 via TBMB; N-terminus and C-terminus assumed) | – | – | – | Ki [3]: 6 nM
